Source: patent US9061981B2, “Diphenyl substituted cyclohexane derivatives, useful as modulators of the estrogen receptors beta” (Acadia Pharmaceuticals Inc., priority 2011, dated 2015)

Assays:
[1] = Unidirectional permeability across MatTek EpiOral buccal tissue; assay type: in vitro ADME, human
Method: EpiOral→tissues plated in 24-well plates were obtained from MatTek Corporation (Ashland, Mass., USA). The assay buffer was Dulbeccos' Phosphate Buffered Saline (DPBS) without Ca & Mg chloride, pH 7.4. Each test compound was co-dosed with the two control compounds. Targeting dosing concentrations were 10 μM for each test compound and 100 μM for the two control compounds. Prior to the permeability assay onset, the tissues were preequilibrated in a pre-warmed EpiOral assay medium for one hour at 37° C. in a 5% CO2 incubator. The EpiOral assay medium was aspirated after the pre-equilibration, and the tissues were washed twice with the DPBS buffer. The receiver chambers were filled with 0.75 mL of the DPBS buffer, while the donor chambers received 0.4 mL of the dosing solutions. The assay plates were placed at 37° C. in a 5% CO2 incubator. The receiver samples (200 μL) were collected at 30, 60, and 120 minutes, and replaced with an equal volume of fresh pre-warmed receiver buffer (except for the last time point of 120 minutes). The donor sides were sampled at 0 and 120 minutes. The test compounds were then analyzed using LC-MS/MS.

[2] = system: bilateral 6-hydroxydopamine (6OHDA) lesion of the substantia nigra; assay: Bilateral 6OHDA lesion of the substantia nigra, behavioral assessment; assay type: in vivo, Male rats; conditions: for prepulse inhibition (sensorimotor gating): 6OHDA rats, once daily 7 days sc, 10 mg/kg (estradiol 100 μg/kg); for motor performance (spontaneous locomotor activity, rotorod, challenging beam) / novel object recognition (cognition): rat, in vivo; for novel object recognition (cognition): sc, 10 mg/kg
Method: (§1) Male rats received baseline assessment of weight, motor function (spontaneous locomotor behavior, rotorod performance) and sensorimotor gating (prepulse inhibition). Subjects were assigned to treatment conditions to equalize performance on all these measures. Subjects were then treated once daily for 7 days with either sesame oil vehicle, estradiol (100 μg/kg sc), Comparative substance 131 (10 mg/kg sc), Compound 8 (10 mg/kg sc), Comparative substance 623 (10 mg/kg sc) or Comparative substance 957 (10 mg/kg sc). On the second day of treatment, subjects received bilateral sham or 6OHDA lesions (8 μg in 4 μl) of the substantia nigra (A/P−5.0 mm, M/L±1.6 mm, D/V−8.2 mm) following the atlas of Paxinos and Watson (Paxinos, G., Watson, C., The Rat Brain in Stereotaxic Coordinates, Fourth Edition, New York: Academic Press, Spiral Bound, 1998). Behavioral assessments of motor function (spontaneous locomotion, rotorod and traversing a challenging beam), cognition (novel object recognition) and sensorimotor gating (prepulse inhibition) began after the final day of treatment. Following behavioral assessment, SN and striatal tissue were collected in order to determine the intactness of the nigrostriatal dopamine system.

[3] = system: nigrostriatal dopamine neurons; assay: Tyrosine hydroxylase immunofluorescence in SN and STR after 6OHDA lesion; assay type: in vivo, Male rats; conditions: 6OHDA rats, once daily 7 days sc; 10 mg/kg (estradiol 100 μg/kg)
Method: as §1
Comparative compound 131 and Compound 8 were compared with estradiol for their ability to protect nigrostriatal dopamine neurons as measured by tyrosine hydroxylase (TH) immunohistochemistry in the SN and striatum (STR).

[4] = biological target: ERβ (Homo sapiens, UniProt Q92731); assay: Competitive 3H-estradiol binding assay, ERβ; parameters: expressed in transfected cells; host or cells: HEK293 cells, transient transfection
Method: Cells were then harvested by scraping in ice-cold PBS and subsequently lysed using a cold buffer containing 10 mM Tris pH 7.4, 1 mM EDTA, 1 mM DTT before being subjected to polytron twice for 10 seconds. Cytosolic extracts were isolated by centrifugation at 15000 g for 30 minutes at 4° C. Competitive binding of the test compounds or the estradiol control was performed on 20 μL extract by overnight incubation at 4° C. in a total volume of 100 μL containing 1 nM ^3H-estradiol (Perkin Elmer, Boston, Mass.). The bound fraction was separated from the unbound one by the addition of 100 μL of Dextran coated charcoal, incubated for 10 minutes and subsequent centrifugation at 1000 rpm for 10 minutes. Samples (100 μL per sample) were then analyzed by liquid scintillation. Data was then analyzed using the curve fitting software GraphPad Prism.

[5] = biological target: T1, ERα (Homo sapiens, UniProt P03372); assay: R-SAT functional assay, ERα; assay type: cell-based; parameters: expressed in transfected cells; host or cells: NIH-3T3 fibroblasts, transient transfection; conditions: NIH-3T3 cells; for EC50: na = not active, read-out: R-SAT Erα pEC50 (converted)
T1 sequence (P03372 1-595): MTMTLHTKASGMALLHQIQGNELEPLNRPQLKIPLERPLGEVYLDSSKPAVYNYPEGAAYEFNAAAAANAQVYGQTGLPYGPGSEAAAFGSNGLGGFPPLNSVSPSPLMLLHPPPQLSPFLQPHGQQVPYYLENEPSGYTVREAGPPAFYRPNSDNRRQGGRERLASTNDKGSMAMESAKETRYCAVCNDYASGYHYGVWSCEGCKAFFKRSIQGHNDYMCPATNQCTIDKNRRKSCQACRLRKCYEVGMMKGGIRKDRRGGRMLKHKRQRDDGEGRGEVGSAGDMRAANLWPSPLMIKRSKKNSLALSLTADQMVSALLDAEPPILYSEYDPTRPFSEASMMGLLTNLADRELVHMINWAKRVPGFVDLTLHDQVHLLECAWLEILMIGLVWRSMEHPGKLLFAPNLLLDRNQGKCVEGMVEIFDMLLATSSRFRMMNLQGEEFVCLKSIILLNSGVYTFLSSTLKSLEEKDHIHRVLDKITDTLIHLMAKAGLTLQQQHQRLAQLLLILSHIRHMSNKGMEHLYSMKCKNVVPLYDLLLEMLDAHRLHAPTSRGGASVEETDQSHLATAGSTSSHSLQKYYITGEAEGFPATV
Excerpt: R-SAT® (Receptor Selection and Amplification Technology) is a cell-based functional assay that allows one to monitor receptor-dependent proliferative responses and has been described elsewhere. […] This process is achieved by partial cellular transformation via loss of contact inhibition and growth factor dependency. Monitoring is achieved by transfecting the cells with a β-galactosidase reporter gene vector whose expression is under a constitutively active promoter. Briefly, NIH-3T3 fibroblasts were plated overnight in 96-wells plates in DMEM 10% calf serum (Hyclone) and grown to 60-70% confluency prior to transfection. Transient transfections were performed using Polyfect (Qiagen) according to manufacturer's instructions. Typically a transfection mix would consist of the receptor and the β-galactosidase expression vectors. Sixteen hours post-transfection, cells were incubated with different doses of ligand in DMEM containing 30% Ultraculture (Hyclone) and 0.4% calf serum (Hyclone) to generate a dose response curve. […] Plates were read using a microplate reader at 420 nm. Data from R-SAT® assays were fit to the equation: r=A+B(x/(x+c)), where A=minimum response, B=maximum response minus minimum response, c=EC50, r=response, and x=concentration of ligand. Curves were generated using the curve fitting softwares Excel Fit and GraphPad Prism (San Diego, Calif.). Luciferase Reporter Gene Assay

Sequence of ERβ (Q92731 whole entry, species assumed): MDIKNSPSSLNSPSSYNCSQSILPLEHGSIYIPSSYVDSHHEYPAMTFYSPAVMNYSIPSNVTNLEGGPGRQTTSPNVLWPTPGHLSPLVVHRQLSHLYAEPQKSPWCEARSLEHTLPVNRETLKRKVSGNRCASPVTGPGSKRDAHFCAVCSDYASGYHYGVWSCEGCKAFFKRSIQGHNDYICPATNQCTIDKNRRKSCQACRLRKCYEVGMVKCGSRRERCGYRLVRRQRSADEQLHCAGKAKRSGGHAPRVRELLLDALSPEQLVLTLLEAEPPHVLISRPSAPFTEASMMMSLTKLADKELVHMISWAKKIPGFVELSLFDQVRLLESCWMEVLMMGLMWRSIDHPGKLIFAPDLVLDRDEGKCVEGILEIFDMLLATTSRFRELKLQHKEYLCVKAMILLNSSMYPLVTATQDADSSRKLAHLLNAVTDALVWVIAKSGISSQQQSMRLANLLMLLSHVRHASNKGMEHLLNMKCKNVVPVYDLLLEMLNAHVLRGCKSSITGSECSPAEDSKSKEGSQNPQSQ

SMILES	permeability classification in MatTek EpiOral buccal tissue [1]	prepulse inhibition (sensorimotor gating) [2]	motor performance (spontaneous locomotor activity, rotorod, challenging beam) [2]	novel object recognition (cognition) [2]	percent immunopositive and mean pixel intensity of TH immunofluorescence in the STR [3]	percent immunopositive, mean cell size and mean pixel intensity of TH immunofluorescence in the SN [3]	tyrosine hydroxylase positive cell number in the SN [3]	Ki [4] [nM]	R-SAT Erα % Eff [5] [%]	EC50 [5] [nM]
Oc1ccc(C2(c3ccccc3F)CCC(F)(F)CC2)cc1 [Compound 8, 4-(4,4-Difluoro-1-(2-fluorophenyl)cyclohexyl)phenol]	highly permeable	prevented the 6OHDA-induced deficit in PPI	prevented the impairment	showed improved memory	increase in percentage of the image that was immunopositive and increased mean pixel intensity	improved percent immunopositive, mean cell size and mean pixel intensity	prevented the reduction in cell number	6.31	62	1000
Oc1ccc(C2(c3ccccc3Cl)CCCCC2)cc1F [Compound 957]	low permeability	prevented the 6OHDA-induced deficit in PPI	prevented the impairment	did not reverse the cognitive deficit	–	improved percent immunopositive, mean cell size and mean pixel intensity	prevented the reduction in cell number	15.8	58	631
Oc1ccc(C2(c3cccc(F)c3Cl)CCCCC2)cc1 [Compound 623]	low permeability	prevented the 6OHDA-induced deficit in PPI	prevented the impairment	showed improved memory	–	improved percent immunopositive, mean cell size and mean pixel intensity	prevented the reduction in cell number	6.31	45	398
